Experimental data as given in patent US8946439B2, “Amide compounds, compositions and uses thereof” (Evotec AG, priority 2008, dated 2015).

Assays:
hP2X3 = target: T1, hP2X3 (Homo sapiens, UniProt P56373); test: Calcium uptake assay (P2X antagonist assay), P2X3 homomer; format: cell-based; conditions: calcium uptake assay, hP2X3; read-out: IC50 hP2X3 (nM), Ca Influx
T1 construct: expressed in transfected cells; host or cells: e.g. HEK293 or 1321N1
T1 sequence (P56373 1-397): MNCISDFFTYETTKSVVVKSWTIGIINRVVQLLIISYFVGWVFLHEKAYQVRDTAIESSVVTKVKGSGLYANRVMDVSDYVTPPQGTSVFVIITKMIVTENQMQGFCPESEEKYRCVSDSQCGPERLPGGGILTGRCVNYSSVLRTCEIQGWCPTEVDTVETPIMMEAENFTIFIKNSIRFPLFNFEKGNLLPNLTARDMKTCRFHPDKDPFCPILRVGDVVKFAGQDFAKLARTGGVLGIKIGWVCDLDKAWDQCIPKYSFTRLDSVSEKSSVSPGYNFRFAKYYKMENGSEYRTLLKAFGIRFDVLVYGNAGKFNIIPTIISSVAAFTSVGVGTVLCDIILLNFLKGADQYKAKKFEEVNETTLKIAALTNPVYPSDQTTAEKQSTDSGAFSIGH
In short: (§1)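 Stably or transiently transfected HEK293 or 1321N1 cells; the heteromer is made by adding P2X3 to a P2X2-stable line, with heteromer function isolated pharmacologically. The peak-minus-baseline FLIPR calcium signal gives % inhibition and a 4-parameter-logistic IC50.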

hP2X2/3H = target: T2, hP2X2/3H (Homo sapiens, UniProt P56373+Q9UBL9); test: Calcium uptake assay (P2X antagonist assay), P2X2/3 heteromer; format: cell-based; conditions: calcium uptake assay, hP2X2/3H; read-out: IC50 hP2X2/3H (nM), Ca Influx
T2 construct: expressed in transfected cells; host or cells: e.g. HEK293 or 1321N1
T2 sequence (Q9UBL9 1-471): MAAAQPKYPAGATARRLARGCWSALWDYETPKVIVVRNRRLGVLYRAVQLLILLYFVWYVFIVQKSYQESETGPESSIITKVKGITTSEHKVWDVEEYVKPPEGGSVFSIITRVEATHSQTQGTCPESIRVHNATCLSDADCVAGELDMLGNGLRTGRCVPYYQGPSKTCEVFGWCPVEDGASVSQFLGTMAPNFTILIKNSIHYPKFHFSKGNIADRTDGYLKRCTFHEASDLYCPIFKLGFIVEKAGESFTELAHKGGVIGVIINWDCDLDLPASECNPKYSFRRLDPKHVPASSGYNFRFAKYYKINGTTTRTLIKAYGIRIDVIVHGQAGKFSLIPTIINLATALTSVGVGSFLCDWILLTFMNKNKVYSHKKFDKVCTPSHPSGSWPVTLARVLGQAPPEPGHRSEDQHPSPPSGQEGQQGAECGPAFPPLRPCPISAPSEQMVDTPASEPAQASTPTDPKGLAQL
T2 sequence (P56373 1-397): T1 sequence (P56373 1-397)
In short: as §1

Row | SMILES | IC50 (hP2X3) | IC50 (hP2X2/3H)
1 | Cc1ccc(CNC(=O)c2cc(-c3ccc(Cl)c(Cl)c3)cc(S(C)(=O)=O)c2)cn1 [Compound 112] | > 1000 nM | > 1000 nM
2 | Cc1ccc(-c2cc(C(=O)N[C@H](C)c3cnn(CC(F)(F)F)c3C)cc(C(=O)N3CCCC3)c2)cc1 [Compound 117] | 501 to 1000 nM | > 1000 nM
3 | Cc1ccc(CNC(=O)c2cc(-c3ccc(Cl)c(C)c3)cc(S(C)(=O)=O)c2)cn1 [Compound 119] | > 1000 nM | > 1000 nM
4 | Cc1ccc(CNC(=O)c2cc(-c3ccc(C)c(Cl)c3)cc(S(C)(=O)=O)c2)cn1 [Compound 120] | > 1000 nM | > 1000 nM
5 | Cc1ccc(CNC(=O)c2cc(-c3ccc(C)c(C)c3)cc(S(C)(=O)=O)c2)cn1 [Compound 121] | > 1000 nM | > 1000 nM
6 | Cc1ccc(-c2cc(C(=O)N[C@H](C)c3ccc(C(F)(F)F)nc3)cc(C(=O)N3CCCC3)c2)nc1 [Compound 135] | < 100 nM | < 100 nM
7 | Cc1ccc(CNC(=O)c2cc(-c3ccc(Cl)c(F)c3)cc(S(C)(=O)=O)c2)cn1 [Compound 136] | 501 to 1000 nM | > 1000 nM
8 | Cc1ccc(CNC(=O)c2cc(-c3ccc(C)c(F)c3)cc(S(C)(=O)=O)c2)cn1 [Compound 137] | 100 to 500 nM | 100 to 500 nM
9 | Cc1ccc(CNC(=O)c2cc(-c3ccc(Cl)cc3)cc(S(C)(=O)=O)c2)cn1 [Compound 138] | 100 to 500 nM | 100 to 500 nM
10 | Cc1ccc(CNC(=O)c2cc(-c3ccc(Cl)c(C(F)(F)F)c3)cc(S(C)(=O)=O)c2)cn1 [Compound 139] | > 1000 nM | > 1000 nM
11 | Cc1ccc(-c2cc(C(=O)NCc3ccc(C)nc3)cc(C(=O)N3C[C@H]4CNC[C@H]4C3)c2)cc1 [Compound 140, 4′-Methyl-N-((6-methylpyridin-3-yl)methyl)-5-((3aR,6aS)-octahydropyrrolo[3,4-c]pyrrole-2-carbonyl)biphenyl-3-carboxamide] | 100 to 500 nM | 100 to 500 nM
12 | Cc1ccc(-c2cc(C(=O)NCc3ccc(C)nc3)cc(C(=O)N3CC4CN(C)CC4C3)c2)cc1 (stereo not drawn) [Compound 141] | < 100 nM | 100 to 500 nM
13 | Cc1ccc(-c2cc(C(=O)NCc3ccc(C)nc3)cc(C(=O)N3CC[C@H](N(C)C)C3)c2)cc1 [Compound 142] | < 100 nM | 100 to 500 nM
14 | Cc1ccc(-c2cc(C(=O)NCc3ccc(C)nc3)cc(C(=O)N3CC[C@@H](N(C)C)C3)c2)cc1 [Compound 143] | 100 to 500 nM | 501 to 1000 nM
15 | COc1ccc(CNC(=O)c2cc(-c3ccc(C)cc3)cc(S(C)(=O)=O)c2)cn1 [Compound 144] | 100 to 500 nM | < 100 nM
16 | Cc1ccc(-c2cc(C(=O)NCc3ccc(C(F)(F)F)c(F)c3)cc(C(=O)N3CCCC3)c2)nc1 [Compound 145] | 100 to 500 nM | 100 to 500 nM
17 | Cc1ccc(-c2cc(C(=O)NCc3ccc(C(F)(F)F)nc3)cc(C(=O)N3CC[C@@H](O)C3)c2)nc1 [Compound 146] | < 100 nM | < 100 nM
18 | Cc1ccc(-c2cc(C(=O)N[C@H](C)c3cnc(C)nc3)cc(S(=O)(=O)N3CCCC3)c2)c(C#N)c1 [Compound 147] | < 100 nM | > 1000 nM
19 | Cc1ccc(-c2cc(C(=O)NCc3ccc(C)nc3)cc(S(=O)(=O)N3CCCC3)c2)c(C#N)c1 [Compound 148] | < 100 nM | > 1000 nM
20 | Cc1ccc(-c2cc(C(=O)N[C@H](C)c3cnc(C)c(Cl)c3)cc(S(C)(=O)=O)c2)cc1 [Compound 149] | 100 to 500 nM | 100 to 500 nM
21 | Cc1ccc(-c2cc(C(=O)N[C@H](C)c3ccc(C(F)(F)F)nc3)cc(C(=O)N3CC[C@@H](O)C3)c2)nc1 [Compound 150] | < 100 nM | < 100 nM

Now from value to compound:

Row | IC50 (hP2X3) | IC50 (hP2X2/3H) | SMILES
22 | < 100 nM | 100 to 500 nM | Cc1ccc(-c2cc(C(=O)NCc3ccc(C)nc3)cc(S(C)(=O)=O)c2)nc1 [Compound 113, 3-(5-Methylpyridin-2-yl)-N-((6-methylpyridin-3-yl)methyl)-5-(methylsulfonyl)benzamide]
23 | < 100 nM | 100 to 500 nM | COc1ncc([C@@H](C)NC(=O)c2cc(-c3ccc(C)cc3)cc(S(C)(=O)=O)c2)cn1 [Compound 114]
24 | < 100 nM | 100 to 500 nM | COc1ncc(CNC(=O)c2cc(-c3ccc(C)cc3)cc(S(C)(=O)=O)c2)cn1 [Compound 115]
25 | < 100 nM | < 100 nM | Cc1ccc(-c2cc(C(=O)N[C@H](C)c3cnc(C)nc3)cc(S(C)(=O)=O)c2)cc1 [Compound 116, (R)-4′-Methyl-N-(1-(2-methylpyrimidin-5-yl)ethyl)-5-(methylsulfonyl)biphenyl-3-carboxamide]
26 | < 100 nM | < 100 nM | Cc1ccc(-c2cc(C(=O)NC(C)c3ccc(C)nc3)cc(C(=O)N3CCCC3)c2)nc1 (stereo not drawn) [Compound 118]
27 | < 100 nM | < 100 nM | Cc1ccc(-c2cc(C(=O)NCc3ccc(C)nc3)cc(C(=O)N3CCCC3)c2)nc1 [Compound 122, 3-(5-Methylpyridin-2-yl)-N-((6-methylpyridin-3-yl)methyl)-5-(pyrrolidine-1-carbonyl)benzamide]
28 | < 100 nM | < 100 nM | Cc1ccc(-c2cc(C(=O)NCc3ccc(C(F)(F)F)nc3)cc(C(=O)N3CCCC3)c2)nc1 [Compound 123]
29 | < 100 nM | 100 to 500 nM | Cc1ccc(-c2cc(C(=O)NCc3ccc(C)nc3)cc(C(=O)N3CCNCC3)c2)cc1 [Compound 124]
30 | < 100 nM | 100 to 500 nM | Cc1ccc(-c2cc(C(=O)NCc3ccc(C)nc3)cc(C(=O)N3CCN(C(C)C)CC3)c2)cc1 [Compound 125]
31 | < 100 nM | 100 to 500 nM | Cc1ccc(-c2cc(C(=O)NCc3ccc(C)nc3)cc(C(=O)N3CCNC(C)C3)c2)cc1 (stereo not drawn) [Compound 126]
32 | < 100 nM | 100 to 500 nM | Cc1ccc(-c2cc(C(=O)NCc3ccc(C)nc3)cc(C(=O)N3CCN(c4nccs4)CC3)c2)cc1 [Compound 127, 4′-Methyl-N-((6-methylpyridin-3-yl)methyl)-5-(4-(thiazol-2-yl)piperazine-1-carbonyl)biphenyl-3-carboxamide]
33 | < 100 nM | < 100 nM | Cc1ccc(-c2cc(C(=O)NCc3ccc(C)nc3)cc(C(=O)N3CCN4CCCC4C3)c2)cc1 (stereo not drawn) [Compound 128]
34 | < 100 nM | < 100 nM | Cc1ccc(-c2cc(C(=O)NCc3ncc(C(F)(F)F)cc3Cl)cc(C(=O)N3CC(O)C3)c2)cc1 [Compound 129]
35 | < 100 nM | < 100 nM | Cc1ccc(-c2cc(C(=O)NCc3ccc(C(F)(F)F)nc3)cc(C(=O)N3CC(O)C3)c2)cc1 [Compound 130, 5-(3-Hydroxyazetidine-1-carbonyl)-4′-methyl-N-((6-(trifluoromethyl)pyridin-3-yl)methyl)biphenyl-3-carboxamide]
36 | < 100 nM | < 100 nM | Cc1ccc(-c2cc(C(=O)NCc3ccc(Cl)nc3)cc(C(=O)N3CC(O)C3)c2)cc1 [Compound 131]
37 | < 100 nM | < 100 nM | Cc1ccc(-c2cc(C(=O)NCc3ccc(C)nc3)cc(C(=O)N3CC(O)C3)c2)cc1 [Compound 132]
38 | < 100 nM | 100 to 500 nM | COc1ncc(CNC(=O)c2cc(C(=O)N3CC(O)C3)cc(-c3ccc(C)cc3)c2)cn1 [Compound 133]
39 | < 100 nM | < 100 nM | Cc1ccc(-c2cc(C(=O)NCc3ncc(Cl)cc3Cl)cc(C(=O)N3CC(O)C3)c2)cc1 [Compound 134]
